From patent US20080234262A1 (Wyeth, priority 2007, published 2008)
pIC50: −log10 of the molar value.

Target: PI3K (Homo sapiens, UniProt P42336)
Assay: Fluorescence polarization assay for PI3K;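 also: PI3K kinase reaction on PIP2 with ATP, 30-60 min, product sensed by GST-GRP with red probe in fluorescence polarization (mP), controls without enzyme and at zero time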
Format: biochemical
Settings: PI3Kα; read-out: PI3Kα IC50

Chain of PI3K (P42336 whole entry): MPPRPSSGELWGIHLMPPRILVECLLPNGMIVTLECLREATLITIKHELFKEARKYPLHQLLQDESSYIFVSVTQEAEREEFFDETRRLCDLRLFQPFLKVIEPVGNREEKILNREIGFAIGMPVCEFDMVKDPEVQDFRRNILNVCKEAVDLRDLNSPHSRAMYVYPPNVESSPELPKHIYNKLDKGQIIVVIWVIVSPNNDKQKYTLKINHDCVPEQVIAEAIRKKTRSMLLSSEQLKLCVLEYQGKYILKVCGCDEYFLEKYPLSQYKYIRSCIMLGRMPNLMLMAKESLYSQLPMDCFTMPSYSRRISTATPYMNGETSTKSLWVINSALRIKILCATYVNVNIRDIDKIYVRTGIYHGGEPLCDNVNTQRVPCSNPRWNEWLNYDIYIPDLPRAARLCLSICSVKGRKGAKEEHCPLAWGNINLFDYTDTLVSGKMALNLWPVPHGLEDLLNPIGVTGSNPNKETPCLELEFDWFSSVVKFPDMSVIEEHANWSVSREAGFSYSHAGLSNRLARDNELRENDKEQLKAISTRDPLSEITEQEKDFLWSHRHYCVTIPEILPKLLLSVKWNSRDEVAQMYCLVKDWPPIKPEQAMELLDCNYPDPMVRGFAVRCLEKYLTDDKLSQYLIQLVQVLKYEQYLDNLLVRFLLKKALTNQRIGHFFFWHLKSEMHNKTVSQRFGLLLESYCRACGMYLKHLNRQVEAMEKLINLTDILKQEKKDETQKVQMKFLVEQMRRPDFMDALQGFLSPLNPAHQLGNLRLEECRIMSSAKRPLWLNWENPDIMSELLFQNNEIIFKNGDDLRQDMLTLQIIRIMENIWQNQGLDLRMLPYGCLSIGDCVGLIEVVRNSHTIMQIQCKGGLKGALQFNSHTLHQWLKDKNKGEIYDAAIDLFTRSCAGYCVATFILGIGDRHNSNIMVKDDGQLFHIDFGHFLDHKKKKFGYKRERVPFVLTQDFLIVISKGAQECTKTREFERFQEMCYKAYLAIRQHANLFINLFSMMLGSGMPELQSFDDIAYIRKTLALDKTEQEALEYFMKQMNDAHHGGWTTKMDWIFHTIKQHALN
Chain of PI3K (P27986 whole entry partner): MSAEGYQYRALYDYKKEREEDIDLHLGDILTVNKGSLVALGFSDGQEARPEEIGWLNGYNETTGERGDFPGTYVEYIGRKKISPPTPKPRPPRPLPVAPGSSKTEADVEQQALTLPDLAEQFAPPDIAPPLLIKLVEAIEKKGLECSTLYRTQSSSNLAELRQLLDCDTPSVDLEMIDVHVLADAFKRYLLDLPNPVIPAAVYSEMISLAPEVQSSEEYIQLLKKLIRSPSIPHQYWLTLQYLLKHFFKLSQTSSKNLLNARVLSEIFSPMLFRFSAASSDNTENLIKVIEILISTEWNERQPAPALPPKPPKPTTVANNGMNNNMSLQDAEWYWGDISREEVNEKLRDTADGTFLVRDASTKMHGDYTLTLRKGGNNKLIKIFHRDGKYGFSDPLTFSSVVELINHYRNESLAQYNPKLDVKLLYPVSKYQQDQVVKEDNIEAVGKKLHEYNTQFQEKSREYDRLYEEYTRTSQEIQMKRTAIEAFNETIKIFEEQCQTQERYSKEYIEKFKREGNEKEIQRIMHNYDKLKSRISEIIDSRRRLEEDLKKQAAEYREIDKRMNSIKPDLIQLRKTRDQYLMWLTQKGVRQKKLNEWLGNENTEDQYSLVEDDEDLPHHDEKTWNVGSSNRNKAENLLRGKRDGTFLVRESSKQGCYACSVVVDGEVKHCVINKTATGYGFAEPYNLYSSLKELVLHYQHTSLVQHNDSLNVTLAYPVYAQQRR

| SMILES | pIC50 |
| --- | --- |
| O=C(NCCF)Nc1cc(F)c(-c2nc(N3CCOCC3)c3cnn(C4CCN(C(=O)c5cccnc5)CC4)c3n2)cc1F [Compound 711, 1-(2,5-difluoro-4-{4-morpholin-4-yl-1-[1-(pyridin-3-ylcarbonyl)piperidin-4-yl]-1H-pyrazolo[3,4-d]pyrimidin-6-yl}phenyl)-3-(2-fluoroethyl)urea] | 5.53 |
| O=C(Nc1cc(F)c(-c2nc(N3CCOCC3)c3cnn(C4CCN(C(=O)c5cccnc5)CC4)c3n2)cc1F)NC1CC1 [Compound 712, 1-cyclopropyl-3-(2,5-difluoro-4-{4-morpholin-4-yl-1-[1-(pyridin-3-ylcarbonyl)piperidin-4-yl]-1H-pyrazolo[3,4-d]pyrimidin-6-yl}phenyl)urea] | 5.45 |
| FC(F)(F)CN1CCC(n2ncc3c(N4CCOCC4)nc(-c4ccc5[nH]ccc5c4)nc32)CC1 [Compound 715, 6-(1H-indol-5-yl)-4-morpholin-4-yl-1-[1-(2,2,2-trifluoroethyl)piperidin-4-yl]-1H-pyrazolo[3,4-d]pyrimidine] | 5.54 |
| CNC(=O)Nc1ccc(-c2nc(N3CCOCC3)c3cnn(C4CCN(C(=O)COC)CC4)c3n2)cc1 [Compound 718, 1-(4-{1-[1-(methoxyacetyl)piperidin-4-yl]-4-morpholin-4-yl-1H-pyrazolo[3,4-d]pyrimidin-6-yl}phenyl)-3-methylurea] | 6.54 |
| CC(=O)Nc1ccc(-c2nc(N3CCOCC3)c3cnn(C4CCCCO4)c3n2)cc1 (centres unmarked) [Compound 925, N-{4-[4-morpholin-4-yl-1-(tetrahydro-2H-pyran-2-yl)-1H-pyrazolo[3,4-d]pyrimidin-6-yl]phenyl}acetamide] | 5.78 |
| c1cc2cc(-c3nc(N4CCOCC4)c4cn[nH]c4n3)ccc2[nH]1 [Compound 929, 6-(1H-indol-5-yl)-4-morpholin-4-yl-1H-pyrazolo[3,4-d]pyrimidine] | 6.03 |
| COCOc1cncc(-c2nc(N3CCOCC3)c3cnn(C4CCN(Cc5ccccc5)CC4)c3n2)c1 [Compound 931, 1-(1-benzylpiperidin-4-yl)-6-[5-(methoxymethoxy)pyridin-3-yl]-4-morpholin-4-yl-1H-pyrazolo[3,4-d]pyrimidine] | 5.70 |
| Nc1ccc(-c2nc(N3CCOCC3)c3cnn(C4CCCCO4)c3n2)cc1 (centres unmarked) [Compound 934, 4-[4-morpholin-4-yl-1-(tetrahydro-2H-pyran-2-yl)-1H-pyrazolo[3,4-d]pyrimidin-6-yl]aniline] | 5.31 |
| c1ccc(CN2CCC(n3ncc4c(N5CCOCC5)nc(-c5ccc6ncccc6c5)nc43)CC2)cc1 [Compound 937, 6-[1-(1-benzylpiperidin-4-yl)-4-morpholin-4-yl-1H-pyrazolo[3,4-d]pyrimidin-6-yl]quinoline] | 6.33 |
| CN(C)CC=CC(=O)N1CCC(n2ncc3c(N4CCOCC4)nc(-c4ccc5[nH]ccc5c4)nc32)CC1 [Compound 957, 4-{4-[6-(1H-indol-5-yl)-4-morpholin-4-yl-1H-pyrazolo[3,4-d]pyrimidin-1-yl]piperidin-1-yl}-N,N-dimethyl-4-oxobut-2-en-1-amine] | 6.32 |
| CN(C)CC(=O)Nc1ccc(-c2nc(N3CCOCC3)c3cn[nH]c3n2)cc1 [Compound 958, N2,N2-dimethyl-N-[4-(4-morpholin-4-yl-1H-pyrazolo[3,4-d]pyrimidin-6-yl)phenyl]glycinamide] | 5.64 |
| COC(=O)Nc1ccc(-c2nc(N3CCOCC3)c3cnn(C4CCN(Cc5ccc(F)cc5)CC4)c3n2)cc1 [Compound 959, methyl (4-{1-[1-(4-fluorobenzyl)piperidin-4-yl]-4-morpholin-4-yl-1Hpyrazolo[3,4-d]pyrimidin-6-yl}phenyl)carbamate] | 6.12 |
| Oc1cccc(-c2nc(N3CCSCC3)c3cnn(-c4ccccc4)c3n2)c1 [Compound 963, 3-(1-phenyl-4-thiomorpholin-4-yl-1H-pyrazolo[3,4-d]pyrimidin-6-yl)phenol] | 5.79 |
| c1ccc(CN2CCC(n3ncc4c(N5CCOCC5)nc(-c5ccc6c(c5)OCO6)nc43)CC2)cc1 [Example 33] | 5.93 |
| c1cc2cc(-c3nc(N4CCOCC4)c4cnn(C5CCNCC5)c4n3)ccc2[nH]1 [Example 46] | 5.88 |
| CC(=O)Nc1ccc(-c2nc(N3CCOCC3)c3cnn(C4CCN(Cc5cccnc5)CC4)c3n2)cc1 [Example 158, N-(4-{4-morpholin-4-yl-1-[1-(pyridin-3-ylmethyl)piperidin-4-yl]-1H-pyrazolo[3,4-d]pyrimidin-6-yl}phenyl)acetamide] | 6.39 |
| CC(=O)Nc1ccc(-c2nc(N3CCOCC3)c3cnn(C4CCN(C(=O)c5cccnc5)CC4)c3n2)cc1 [Example 221, N-(4-{4-morpholin-4-yl-1-[1-(pyridin-3-ylcarbonyl)piperidin-4-yl]-1H-pyrazolo[3,4-d]pyrimidin-6-yl}phenyl)acetamide] | 6.06 |
| COC(=O)Nc1ccc(-c2nc(N3CCOCC3)c3cnn(C4CCN(C(=O)c5cccnc5)CC4)c3n2)cc1 [Example 223, methyl (4-{4-morpholin-4-yl-1-[1-(pyridin-3-ylcarbonyl)piperidin-4-yl]-1H-pyrazolo[3,4-d]pyrimidin-6-yl}phenyl)carbamate] | 6.29 |
| CNC(=O)Nc1ccc(-c2nc(N3CCOCC3)c3cnn(C4CCN(C(=O)c5cccnc5)CC4)c3n2)cc1 [Example 226, 1-methyl-3-(4-{4-morpholin-4-yl-1-[1-(pyridin-3-ylcarbonyl)piperidin-4-yl]-1H-pyrazolo[3,4-d]pyrimidin-6-yl}phenyl)urea] | 6.26 |
| CNC(=O)Nc1ccc(-c2nc(N3CCOCC3)c3cnn(C4CCCCO4)c3n2)cc1 (centres unmarked) [Example 235, 1-methyl-3-{4-[4-morpholin-4-yl-1-(tetrahydro-2H-pyran-2-yl)-1H-pyrazolo[3,4-d]pyrimidin-6-yl]phenyl}urea] | 5.31 |
| Nc1ccc(-c2nc(N3CCOCC3)c3cn[nH]c3n2)cc1 [Example 285, 4-(4-morpholin-4-yl-1H-pyrazolo[3,4-d]pyrimidin-6-yl)aniline] | 5.79 |
| CNC(=O)Nc1ccc(-c2nc(N3CCOCC3)c3cnn(C4CCN(Cc5ccccc5)CC4)c3n2)cc1F [Example 348, 1-{4-[1-(1-benzylpiperidin-4-yl)-4-morpholin-4-yl-1H-pyrazolo[3,4-d]pyrimidin-6-yl]-2-fluorophenyl}-3-methylurea] | 6.70 |
| CCNC(=O)Nc1ccc(-c2nc(N3CCOCC3)c3cnn(C4CCN(Cc5cccnc5)CC4)c3n2)cc1F [Example 372, 1-ethyl-3-(2-fluoro-4-{4-morpholin-4-yl-1-[1-(pyridin-3-ylmethyl)piperidin-4-yl]-1H-pyrazolo[3,4-d]pyrimidin-6-yl}phenyl)urea] | 6.37 |

Second part, the compound after the results:

| pIC50 | SMILES |
| --- | --- |
| 6.76 | O=C(Nc1ccccc1)Nc1cc(F)c(-c2nc(N3CCOCC3)c3cnn(C4CCN(C(=O)c5cccnc5)CC4)c3n2)cc1F [Compound 713, 1-(2,5-difluoro-4-{4-morpholin-4-yl-1-[1-(pyridin-3-ylcarbonyl)piperidin-4-yl]-1H-pyrazolo[3,4-d]pyrimidin-6-yl}phenyl)-3-phenylurea] |
| 6.98 | CNC(=O)Nc1ccc(-c2nc(N3CCOCC3)c3cn[nH]c3n2)cc1 [Compound 927, 1-methyl-3-[4-(4-morpholin-4-yl-1H-pyrazolo[3,4-d]pyrimidin-6-yl)phenyl]urea] |
| 7.44 | Oc1cncc(-c2nc(N3CCOCC3)c3cnn(C4CCN(Cc5ccccc5)CC4)c3n2)c1 [Compound 930, 5-[1-(1-benzylpiperidin-4-yl)-4-morpholin-4-yl-1H-pyrazolo[3,4-d]pyrimidin-6-yl]pyridin-3-ol] |
| 6.93 | CNC(=O)Nc1ccc(-c2nc(N3CCOCC3)c3cnn(C4CCCCO4)c3n2)cc1 (centres unmarked) [Compound 935, 1-methyl-3-{4-[4-morpholin-4-yl-1-(tetrahydro-2H-pyran-2-yl)-1H-pyrazolo[3,4-d]pyrimidin-6-yl]phenyl}urea] |
| 7.15 | Oc1cccc(-c2nc(N3CCOCC3)c3c(F)nn(-c4ccccc4)c3n2)c1 [Compound 964, 3-(3-fluoro-4-morpholin-4-yl-1-phenyl-1H-pyrazolo[3,4-d]pyrimidin-6-yl)phenol] |
| 6.98 | CNC(=O)Nc1ccc(-c2nc(N3CCOCC3)c3cn[nH]c3n2)cc1 [Example 236, 1-methyl-3-[4-(4-morpholin-4-yl-1H-pyrazolo[3,4-d]pyrimidin-6-yl)phenyl]urea] |
| 7.29 | CNC(=O)Nc1ccc(-c2nc(N3CCOCC3)c3cnn(-c4ccccc4)c3n2)cc1 [Example 297, 1-methyl-3-[4-(4-morpholin-4-yl-1-phenyl-1H-pyrazolo[3,4-d]pyrimidin-6-yl)phenyl]urea] |
| 7.15 | CNC(=S)Nc1ccc(-c2nc(N3CCOCC3)c3cnn(C4CCN(Cc5ccccc5)CC4)c3n2)cc1 [Example 325, 1-{4-[1-(1-benzylpiperidin-4-yl)-4-morpholin-4-yl-1H-pyrazolo[3,4-d]pyrimidin-6-yl]phenyl}-3-methylthiourea] |
| 6.70 | CNC(=O)Nc1ccc(-c2nc(N3CCOCC3)c3cnn(C4CCN(C(=O)c5ccc[n+]([O-])c5)CC4)c3n2)cc1 [Example 328, 1-methyl-3-[4-(4-morpholin-4-yl-1-{1-[(1-oxidopyridin-3-yl)carbonyl]piperidin-4-yl}-1H-pyrazolo[3,4-d]pyrimidin-6-yl)phenyl]urea] |
| 7.85 | O=C(Nc1ccccc1)Nc1ccc(-c2nc(N3CCOCC3)c3cnn(C4CCN(C(=O)c5cccnc5)CC4)c3n2)cc1 [Example 343, 1-(4-{4-morpholin-4-yl-1-[1-(pyridin-3-ylcarbonyl)piperidin-4-yl]-1H-pyrazolo[3,4-d]pyrimidin-6-yl}phenyl)-3-phenylurea] |
| 7.10 | CNC(=O)Nc1ccc(-c2nc(N3CCOCC3)c3cnn(C4CCN(C(=O)c5ccccc5F)CC4)c3n2)cc1 [Example 354, 1-(4-{1-[1-(2-fluorobenzoyl)piperidin-4-yl]-4-morpholin-4-yl-1H-pyrazolo[3,4-d]pyrimidin-6-yl}phenyl)-3-methylurea] |
| 6.80 | CNC(=O)Nc1ccc(-c2nc(N3CCOCC3)c3cnn(C4CCN(C(=O)c5ccncc5)CC4)c3n2)cc1 [Example 417, 1-{4-[1-(1-isonicotinoylpiperidin-4-yl)-4-morpholin-4-yl-1H-pyrazolo[3,4-d]pyrimidin-6-yl]phenyl}-3-methylurea] |
